Measurements reported in ChEMBL document CHEMBL4382283, “Discovery of a GPR40 Superagonist: The Impact of Aryl Propionic Acid α-Fluorination” (ACS Med Chem Lett, 2019).
pEC50: −log10 of the molar value. Calls of active or inactive are those of the source. The calls are words filed in the database; no cut-off is given here.

Legend:
[1] = target: Free fatty acid receptor 1 (Rattus norvegicus, UniProt Q8K3T4); experiment: Agonist activity at rat GPR40 expressed in HEK293 cells assessed as induction of intracellular calcium mobilization by Fluo-8 dye based FLIPR assay; assay type: functional, cell-based
[2] = target: T1, Free fatty acid receptor 1 (Homo sapiens, UniProt O14842); experiment: Agonist activity at human GPR40 expressed in HEK293 cells assessed as induction of intracellular calcium mobilization by Fluo-8 dye based FLIPR assay; assay type: functional, cell-based
[3] = Cmax in Sprague-Dawley rat at 10 mg/kg, po by LC-MS/MS analysis; assay type: ADME, organism-based; set-up: dose 10 mg/kg, route oral; conditions: in vivo
[4] = Clearance in Sprague-Dawley rat at 10 mg/kg, po or 2 mg/kg, iv by LC-MS/MS analysis; assay type: ADME, organism-based; conditions: in vivo
[5] = Drug metabolism in human hepatocytes at 10 uM after 2 hr by LC-MS analysis; assay type: ADME, cell-based, Hepatocyte
[6] = Half life in Sprague-Dawley rat at 10 mg/kg, po by LC-MS/MS analysis; assay type: ADME, organism-based; conditions: in vivo
[7] = target: T1, Free fatty acid receptor 1; experiment: Agonist activity at human GPR40 expressed in CHOK1 cells assessed as induction of Galphaq-mediated IP1 accumulation after 90 mins HTRF assay; assay type: functional, cell-based
[8] = Oral bioavailability in Sprague-Dawley rat at 10 mg/kg by LC-MS/MS analysis; assay type: ADME, organism-based; conditions: in vivo
[9] = Metabolic stability in human hepatocytes assessed as parent compound remaining at 10 uM after 2 hr by LC-MS analysis; assay type: ADME, cell-based, Hepatocyte
[10] = Volume of distribution at steady state in Sprague-Dawley rat at 10 mg/kg, po or 2 mg/kg, iv by LC-MS/MS analysis; assay type: ADME, organism-based; conditions: in vivo, read-out: Vdss
[11] = target: T1, Free fatty acid receptor 1; experiment: Full agonist activity at human GPR40 expressed in CHOK1 cells assessed as induction of GalphaS-mediated cAMP accumulation after 30 mins HTRF assay; assay type: functional, cell-based
[12] = Half life in Sprague-Dawley rat at 2 mg/kg, iv by LC-MS/MS analysis; assay type: ADME, organism-based; conditions: in vivo
[13] = target: T1, Free fatty acid receptor 1; experiment: Partial agonist activity at human GPR40 expressed in CHOK1 cells assessed as induction of GalphaS-mediated cAMP accumulation after 30 mins HTRF assay; assay type: functional, cell-based
Mus musculus [14] = experiment: Antiobesity activity in diet-induced obese C57BL/6J mouse assessed as body weight loss at 30 mg/kg, po once daily for 14 days measured on day 15 (reference value: 3.74 +/- 0.6%); assay type: functional
[15] = target: T1, Free fatty acid receptor 1; experiment: Agonist activity at GPR40 in human islets assessed as induction of glucose-stimulated insulin secretion after 1 hr by HTRF assay
Mus musculus [16] = experiment: Antiobesity activity in diet-induced obese C57BL/6J mouse assessed as body weight loss at 0.3 mg/kg, po once daily for 14 days measured on day 15 (reference value: 3.74 +/- 0.6%); assay type: functional
[17] = Plasma concentration in diet-induced obese C57BL/6J mouse at 3 mg/kg, po once daily for 14 days measured 24 hrs post last dose; assay type: ADME, organism-based
Cytochrome P450 [18] = experiment: Inhibition of CYP450 in human liver microsomes at 10 uM after 0.5 hrs by LC-MS/MS analysis; assay type: ADME
[19] = Plasma concentration in diet-induced obese mouse at 0.03 mg/kg, po; assay type: ADME, organism-based; conditions: in vivo
Mus musculus [20] = experiment: Antiobesity activity in diet-induced obese C57BL/6J mouse assessed as body weight loss at 3 mg/kg, po once daily for 14 days measured on day 15 (reference value: 3.74 +/- 0.6%); assay type: functional
[21] = Plasma concentration in diet-induced obese mouse at 0.3 mg/kg, po; assay type: ADME, organism-based; conditions: in vivo
[22] = Protein binding in human plasma at 10 uM after 6 hrs by equilibrium dialysis method; assay type: ADME, cell-free; conditions: read-out: PPB
[23] = Plasma concentration in diet-induced obese mouse at 10 mg/kg, po; assay type: ADME, organism-based; conditions: in vivo
[24] = target: T1, Free fatty acid receptor 1
Description: Displacement of [3H]AM-1638 from human GPR40 expressed in CHOK1 cells assessed as dissociation half life after 40 mins by TopCount method

[25] = target: Voltage-gated inwardly rectifying potassium channel KCNH2 (Homo sapiens, UniProt Q12809); experiment: Inhibition of human ERG
[26] = Genotoxicity in Salmonella typhi by Ames test; assay type: toxicity; conditions: salmonella enterica subsp. enterica serovar […]
[27] = Plasma concentration in diet-induced obese C57BL/6J mouse at 30 mg/kg, po once daily for 14 days measured 24 hrs post last dose; assay type: ADME, organism-based
[28] = Plasma concentration in diet-induced obese C57BL/6J mouse at 10 mg/kg, po once daily for 14 days measured 24 hrs post last dose; assay type: ADME, organism-based
Mus musculus [29] = experiment: Antiobesity activity in diet-induced obese C57BL/6J mouse assessed as body weight loss at 10 mg/kg, po once daily for 14 days measured on day 15 (reference value: 3.74 +/- 0.6%); assay type: functional
Mus musculus [30] = experiment: Antiobesity activity in diet-induced obese C57BL/6J mouse assessed as reduction in cumulative food intake administered orally once daily for 14 days; assay type: functional, organism-based
Cytochrome P450 [31] = experiment: Induction of CYP450 in human liver microsomes at 10 uM after 0.5 hrs by LC-MS/MS analysis; assay type: ADME
[32] = target: T1, Free fatty acid receptor 1; remark: listed apart in the source
Description: Displacement of [3H]AM-1638 from human GPR40 expressed in CHOK1 cells assessed as association half life after 60 mins by TopCount method

Mus musculus [33] = experiment: Antidiabetic activity in diet-induced obese mouse assessed as reduction in blood glucose excursion administered orally 45 mins prior to glucose challenge and measured up to 120 mins by OGTT; assay type: functional
[34] = Plasma concentration in diet-induced obese mouse at 1 mg/kg, po; assay type: ADME, organism-based; conditions: in vivo
[35] = target: T1, Free fatty acid receptor 1; experiment: Positive allosteric modulation of human GPR40 expressed in CHOK1 cells assessed as increase in [3H]-(S)-3-Cyclopropyl-3-(3-(((1r,4S)-4-(2-fluoro-5-methoxyphenyl)cyclohexyl)methoxy)phenyl)propanoic acid binding after 60 mins by TopCount method; assay type: cell-based
[36] = Plasma concentration in diet-induced obese C57BL/6J mouse at 1 mg/kg, po once daily for 14 days measured 24 hrs post last dose; assay type: ADME, organism-based
[37] = Plasma concentration in diet-induced obese mouse at 0.1 mg/kg, po; assay type: ADME, organism-based; conditions: in vivo
[38] = Plasma concentration in diet-induced obese C57BL/6J mouse at 0.3 mg/kg, po once daily for 14 days measured 24 hrs post last dose; assay type: ADME, organism-based
Mus musculus [39] = experiment: Antiobesity activity in diet-induced obese C57BL/6J mouse assessed as body weight loss at 1 mg/kg, po once daily for 14 days measured on day 15 (reference value: 3.74 +/- 0.6%); assay type: functional
[40] = Plasma concentration in diet-induced obese mouse at 3 mg/kg, po; assay type: ADME, organism-based; conditions: in vivo
Mus musculus [41] = experiment: Antiobesity activity in diet-induced obese C57BL/6J mouse assessed as body weight loss administered orally once daily for 14 days; assay type: functional, organism-based
[42] = target: T1, Free fatty acid receptor 1; experiment: Agonist activity at GPR40 in human islets assessed as induction of glucose-stimulated insulin secretion at 10 uM after 1 hr by HTRF assay relative to (S)-3-Cyclopropyl-3-(3-(((1r,4S)-4-(2-fluoro-5-methoxyphenyl)cyclohexyl)methoxy)phenyl)propanoic acid
Rattus norvegicus [43] = experiment: Antiobesity activity in ZDF rat assessed as body weight loss at 10 mg/kg daily for 38 days relative to control; assay type: functional
Rattus norvegicus [44] = experiment: Antiobesity activity in ZDF rat assessed as reduction in food intake at 10 mg/kg daily for 38 days relative to control; assay type: functional; set-up: scale not given: the % may be the effect or the level left
Rattus norvegicus [45] = experiment: In vivo agonist activity at GPR40 in ZDF rat assessed as increase in plasma total GLP1 level at 10 mg/kg daily for 38 days relative to control; assay type: functional
Mus musculus [46] = experiment: Antidiabetic activity in diet-induced obese mouse assessed as reduction in blood glucose excursion at 10 mg/kg, po administered 45 mins prior to glucose challenge and measured up to 120 mins by OGTT; assay type: functional, organism-based

T1 sequence (O14842 whole entry): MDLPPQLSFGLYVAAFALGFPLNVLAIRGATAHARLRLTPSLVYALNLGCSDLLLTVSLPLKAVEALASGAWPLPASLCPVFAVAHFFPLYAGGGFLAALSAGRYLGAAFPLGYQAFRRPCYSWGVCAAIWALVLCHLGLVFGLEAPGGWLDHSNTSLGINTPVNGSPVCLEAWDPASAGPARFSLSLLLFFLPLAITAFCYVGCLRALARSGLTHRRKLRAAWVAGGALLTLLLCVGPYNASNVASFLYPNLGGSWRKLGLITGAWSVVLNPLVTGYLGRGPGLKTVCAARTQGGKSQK
Sequence of Free fatty acid receptor 1 (Rattus norvegicus, UniProt Q8K3T4) (Q8K3T4 whole entry): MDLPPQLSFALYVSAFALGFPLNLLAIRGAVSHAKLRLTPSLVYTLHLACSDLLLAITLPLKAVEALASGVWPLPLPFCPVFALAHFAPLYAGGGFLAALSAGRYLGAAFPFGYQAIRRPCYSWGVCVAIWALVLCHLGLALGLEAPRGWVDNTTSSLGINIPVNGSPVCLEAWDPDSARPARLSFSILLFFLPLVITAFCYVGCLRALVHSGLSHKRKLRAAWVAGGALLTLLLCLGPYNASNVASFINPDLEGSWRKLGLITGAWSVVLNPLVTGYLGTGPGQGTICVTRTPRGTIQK
Sequence of Voltage-gated inwardly rectifying potassium channel KCNH2 (Q12809 whole entry): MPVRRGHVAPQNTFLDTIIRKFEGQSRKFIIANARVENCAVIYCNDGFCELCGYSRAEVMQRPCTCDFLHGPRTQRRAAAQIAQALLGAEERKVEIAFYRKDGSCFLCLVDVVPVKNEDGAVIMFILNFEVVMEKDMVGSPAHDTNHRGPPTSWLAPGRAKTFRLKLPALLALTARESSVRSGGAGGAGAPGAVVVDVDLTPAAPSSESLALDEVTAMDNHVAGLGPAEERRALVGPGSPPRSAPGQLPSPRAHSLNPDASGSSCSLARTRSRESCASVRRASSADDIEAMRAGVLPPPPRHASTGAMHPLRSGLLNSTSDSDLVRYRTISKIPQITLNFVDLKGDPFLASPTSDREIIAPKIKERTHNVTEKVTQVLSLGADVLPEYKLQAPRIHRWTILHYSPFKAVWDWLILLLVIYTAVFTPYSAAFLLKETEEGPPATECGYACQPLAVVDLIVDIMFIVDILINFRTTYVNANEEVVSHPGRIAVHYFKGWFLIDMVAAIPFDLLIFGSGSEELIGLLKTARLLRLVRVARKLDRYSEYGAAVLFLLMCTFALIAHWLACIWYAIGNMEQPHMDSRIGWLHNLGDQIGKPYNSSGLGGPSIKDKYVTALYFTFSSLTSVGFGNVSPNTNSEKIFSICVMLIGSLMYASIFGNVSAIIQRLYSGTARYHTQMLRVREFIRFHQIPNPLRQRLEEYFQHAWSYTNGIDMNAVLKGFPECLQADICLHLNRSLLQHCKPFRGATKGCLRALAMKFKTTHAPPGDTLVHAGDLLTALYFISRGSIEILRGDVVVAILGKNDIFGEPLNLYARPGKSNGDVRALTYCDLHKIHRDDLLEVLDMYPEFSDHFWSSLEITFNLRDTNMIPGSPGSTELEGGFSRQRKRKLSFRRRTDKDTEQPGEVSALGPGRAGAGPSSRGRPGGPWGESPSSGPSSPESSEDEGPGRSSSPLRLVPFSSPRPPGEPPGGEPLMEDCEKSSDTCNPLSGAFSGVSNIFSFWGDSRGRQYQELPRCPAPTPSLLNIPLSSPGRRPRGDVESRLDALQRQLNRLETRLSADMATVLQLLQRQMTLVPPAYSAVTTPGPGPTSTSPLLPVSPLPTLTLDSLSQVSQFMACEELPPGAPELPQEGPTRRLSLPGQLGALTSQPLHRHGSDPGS

## COc1ccc(F)c([C@H]2CC[C@H](COc3cccc([C@H](C4CC4)C(F)(F)C(=O)O)c3)CC2)c1
[1]
  pEC50: 7.47
[2]
  pEC50: 7.80

## COc1ccc(F)c([C@H]2CC[C@H](COc3cccc([C@H](C4CC4)[C@@H](F)C(=O)O)c3)CC2)c1
[3]
  Cmax: 3700 ng/mL
[4]
  clearance: 2.7 mL/min/kg
[1]
  pEC50: 7.55
[2]
  pEC50: 8.96
[5]
  Drug metabolism: 7%
[6]
  half-life: 4.3 h
[7]
  pEC50: 7.70
[8]
  bioavailability: 73.8%
[9]
  Stability: 63%
[10]
  Vd: 0.9 L/kg
[11]
  Activity: Active
[12]
  half-life: 4.7 h

## COc1ccc(F)c([C@H]2CC[C@H](COc3cccc([C@H](C4CC4)[C@](C)(F)C(=O)O)c3)CC2)c1
[7]
  pEC50: 7.05
[11]
  Activity: Active

## COc1ccc(F)c([C@H]2CC[C@H](COc3cccc([C@H](C4CC4)C(C)(C)C(=O)O)c3)CC2)c1
[1]
  pEC50: 9.51
[2]
  pEC50: 9.96
[7]
  pEC50: 6.66

## COc1ccc(F)c([C@H]2CC[C@@H](COc3cccc([C@@H](CC(=O)O)C4CC4)c3)CC2)c1
[13]
  Activity: Active

## COc1ccc(F)c([C@H]2CC[C@H](COc3cccc([C@H](C4CC4)[C@H](C)C(=O)O)c3)CC2)c1
[3]
  Cmax: 1360 ng/mL
[4]
  clearance: 8.1 mL/min/kg
[5]
  Drug metabolism: 5%
[6]
  half-life: 4.4 h
[7]
  pEC50: 8.70
[8]
  bioavailability: 45.5%
[9]
  Stability: 45%
[10]
  Vd: 0.9 L/kg
[12]
  half-life: 4.8 h

## COc1ccc(F)c([C@H]2CC[C@H](COc3cccc([C@H](C4CC4)[C@@](C)(F)C(=O)O)c3)CC2)c1
[3]
  Cmax: 495 ng/mL
[4]
  clearance: 17 mL/min/kg
Mus musculus [14]
  Activity: -6.84%
[15]
  pEC50: 8.43
Mus musculus [16]
  Activity: 3.15%
[17]
  concentration at 24 h: 1290 nM
Cytochrome P450 [18]
  inhibition (INH): Not Active
[19]
  concentration: 7.4 nM
Mus musculus [20]
  Activity: -2.56%
[1]
  pEC50: 9.47
[2]
  pEC50: 9.60
[21]
  concentration: 87 nM
[22]
  fraction unbound at 6 h, 10 µM: < 0.001
[5]
  Drug metabolism: 1%
[23]
  concentration: 3830 nM
[24]
  T1/2: 0.333 h
[6]
  half-life: 7.9 h
[25]
  inhibition (INH): Not Active
[26]
  Activity: Non-Toxic
[27]
  concentration at 24 h: 391000 nM
[28]
  concentration at 24 h: 7050 nM
Mus musculus [29]
  Activity: -10.07%
Mus musculus [30]
  Activity: Dose-dependent effect
Cytochrome P450 [31]
  Activity: Not Active
[32]
  T1/2: 3.3 min
Mus musculus [33]
  Activity: Dose-dependent effect
Mus musculus [33]; po, read-out: MED
  minimal effective dose: 3 mg/kg
[34]
  concentration: 220 nM
[35]
  Activity: Active
[36]
  concentration at 24 h: 340 nM
[7]
  pEC50: 8.28 to 8.51
[8]
  bioavailability: 92.1%
[9]
  Stability: 73%
[37]
  concentration: 22 nM
[38]
  concentration at 24 h: 100 nM
[10]
  Vd: 3.2 L/kg
Mus musculus [39]
  Activity: 1.05%
[40]
  concentration: 870 nM
[11]
  Activity: Active
[12]
  half-life: 4.3 h
Mus musculus [41]
  Activity: Dose-dependent effect

## Cc1cc(OCCCS(C)(=O)=O)cc(C)c1-c1cccc(COc2ccc3c(c2)OC[C@H]3CC(=O)O)c1
[1]
  pEC50: 7.41
[42]
  Efficacy: 40%

## COc1ccc(F)c([C@H]2CC[C@H](COc3cccc([C@H](C4CC4)[C@@H](C)C(=O)O)c3)CC2)c1
[1]
  pEC50: 8.31
[2]
  pEC50: 8.66
[7]
  pEC50: 7.66

## COc1ccc(F)c([C@H]2CC[C@H](COc3cccc([C@H](C4CC4)[C@H](F)C(=O)O)c3)CC2)c1
[1]
  pEC50: 6.79
[2]
  pEC50: 7.27
[11]
  Activity: Active

## COc1ccc(F)c([C@H]2CC[C@H](COc3cccc([C@@H](CC(=O)O)C4CC4)c3)CC2)c1
[3]
  Cmax: 18200 ng/mL
[4]
  clearance: 0.4 mL/min/kg
[15]
  pEC50: 5.86
Rattus norvegicus [43]
  Activity: 6%
[1]
  pEC50: 8.39
[2]
  pEC50: 9.03
[22]
  fraction unbound at 6 h, 10 µM: < 0.001
[5]
  Drug metabolism: 4%
[23]
  concentration: 98700 nM
[24]
  T1/2: 0.00233 h
Rattus norvegicus [44]
  Activity: 10%
[6]
  half-life: 9.1 h
[32]
  T1/2: 0.8 min
Rattus norvegicus [45]
  fold change (FC): 6.2
[35]
  Activity: Active
[7]
  pEC50: 6.70
[8]
  bioavailability: 91.4%
[9]
  Stability: 56%
[10]
  Vd: 0.2 L/kg
[11]
  Activity: Active
[12]
  half-life: 7.2 h
Mus musculus [46]
  Activity: Active

## COc1ccc(F)c(-c2ccc(COc3cccc([C@@H](CC(=O)O)C4CC4)c3)cc2C2=CCCC2(C)C)c1
[7]
  Activity: Active
[11]
  Activity: Active
